In US12624067B2, “Cyclic peptide, cell scaffold material, cell separating material, and medium” (FUJIFILM Corporation, priority 2019, dated 2026):
pKd: −log10 of the molar value. Numbered stars: 1 amine (or outer) side, 2 acyl side, 3 side chain; on linkers, the order of the positions; unused ones are H or OH. Bridge positions count the residues as written; N and C are the ends. Square brackets hold non-standard residues; d marks the D form. Peptide text beside a SMILES is read from it. hCys = N[C@@H](CCS)C(=O)O; Orn = NCCC[C@H](N)C(=O)O; Dab = NCC[C@H](N)C(=O)O; Dap = NC[C@H](N)C(=O)O; X1 = O=C(C[*:1])[*:2]; X2 = O=C(C[*:2])[*:1]

How the values were obtained:
[1] = Evaluation of molecule stability (alkali treatment, LC/MS residual rate); type: physicochemical; details: 500 μM peptide plus equivalent of 1 M sodium hydroxide, 15° C., 20 minutes, LC/MS peak area
Experimental: The molecule stability of the cyclic peptide was evaluated by analyzing the alkali-treated cyclic peptide aqueous solution by liquid chromatography mass spectroscopy (LC/MS).
The alkali treatment was carried out by the following method. A 500 μM cyclic peptide aqueous solution was prepared, an equivalent of 1 M sodium hydroxide aqueous solution was added to this aqueous solution, and the resultant mixture was incubated at 15° C. for 20 minutes to obtain an alkali-treated cyclic peptide aqueous solution. The cyclic peptide residual rate was calculated by setting the total area of all peaks of the cyclic peptide before alkali treatment in LC/MS to 100% and determining the proportion of the total area of all peaks in LC/MS of the alkali-treated cyclic peptide aqueous solution, and the molecule stability was evaluated according to the following evaluation standards. It is preferable that the evaluation result satisfies the evaluation standard A, B, or C.
The conditions of the LC/MS used for the evaluation of molecule stability were set as follows. • LC apparatus: Prominence series (pump, column oven, autosampler, detector) (manufactured by Shimadzu Corporation) • MS detector: LC/MS2010EV (manufactured by Shimadzu Corporation) • Column: Cadenza CD-C18, inner diameter 2.0 mm×length 250 mm, particle size: 3 μm (manufactured by Imtakt Corporation) • Eluent A: a solution (pH 3) containing 10 mM ammonium formate as a solute, where the solvent is 100% water. • Eluent B: a solution (pH 3) containing 10 mM ammonium formate as a solute, where the solvent is acetonitrile/water=90/10. • Flow rate: 0.2 mL/min • Injection volume: 4 μL • Gradient: 0% to 30%: Eluent B (0 to 30 minutes), 100%: Eluent B (30 to 40 minutes), 0%: Eluent B (40 to 60 minutes)(B indicates the eluent B) • Column temperature: 45° C. • Ionization method: electrospray ionization (ESI) positive, ESI negative

human integrin αvβ5 = human integrin αvβ5 (Homo sapiens, UniProt P06756+P18084); assay: Evaluation of integrin binding property (surface plasmon resonance, Biacore 3000, immobilized cyclic peptide); details: peptide immobilized on CM5 sensor chip; human integrin αvβ5 30-1,000 nM, 25° C., HEPES buffer with 5 mM magnesium chloride; read-out: Integrin binding property (dissociation constant)
Experimental: A commercially available CM5 sensor chip (a carboxymethyl dextran introduction type, manufactured by GE Healthcare) was set in a surface plasmon resonance apparatus (product name: Biacore 3000, manufactured by GE Healthcare), the sensor was stabilized at a flow rate of 10 μL/min of a 4-(2-hydroxyethyl)-1-piperazineethanesulfonic acid (HEPES) buffer solution (20 mM HEPES-HCl, 150 mM NaCl, pH 7.4) for surface plasmon resonance (SPR), and 70 μL of a mixed aqueous solution of 0.2 M 1-(3-dimethylaminopropyl)-3-ethylcarbodiimide (EDC) and 0.04 M N-hydroxysuccinimide (NHS) was added thereto. Then, 300 μL of the sample solution of each of the above cyclic peptides diluted to 0.2 g/L with the HEPES buffer solution was supplied to the sensor chip, blocking treatment was subsequently carried out with an ethanolamine solution, and washing was carried out with a sodium hydroxide aqueous solution, whereby immobilization was carried out. However, only for the cyclic peptide 22, in which the number of lysine residues having an amino group as the immobilizing functional group was 1, the sample solution to be supplied to the sensor chip was set to 5,000 μL instead of 300 μL. Similarly; 70 μL of the mixed aqueous solution of 0.2 M EDC and 0.04 M NHS was added to another flow channel of the same sensor chip without immobilizing the sample, and then blocking treatment and washing treatment were carried out. Hereinafter, the obtained immobilization-treated sensor chip is referred to as an “immobilization-treated sensor chip A”.
After adding human integrin αvβ5 for 10 minutes at 25° C., which was diluted to 30 nM using a HEPES buffer solution to which magnesium chloride was added to 5 mM, in each flow channel of the immobilization-treated sensor chip A prepared in (1) above, the same HEPES buffer solution (containing 5 mM magnesium chloride) was allowed to flow as a running buffer for 30 minutes, and measurement was carried out with Biacore 3000.
Then, a regeneration treatment of removing human integrin αvβ5 was carried out by allowing a 0.5 M EDTA aqueous solution to flow through each flow channel for 10 minutes. Further, the above-described measurement process consisting of adding integrin for 10 minutes, allowing a running buffer to flow for 30 minutes, carrying out measurement with Biacore 3000, and carrying out regeneration treatment with 0.5 M EDTA aqueous solution was carried out in the same manner for 100 nM human integrin αvβ5, 300 nM human integrin αvβ5, and 1,000 nM human integrin αvβ5. Dissociation constant between the cyclic peptide and human integrin αvβ5 was calculated from the difference between the value measured by Biacore 3000 in the flow channel immobilized with the cyclic peptide and the value measured by Biacore 3000 in the flow channel unimmobilized with the cyclic peptide, in a case where each concentration of human integrin αvβ5 was allowed to flow; and the integrin binding property was evaluated according to the following evaluation standards. It is preferable that the evaluation result satisfies the evaluation standard A, B, or C.

Chain of human integrin αvβ5 (P06756 31-889 limits assumed): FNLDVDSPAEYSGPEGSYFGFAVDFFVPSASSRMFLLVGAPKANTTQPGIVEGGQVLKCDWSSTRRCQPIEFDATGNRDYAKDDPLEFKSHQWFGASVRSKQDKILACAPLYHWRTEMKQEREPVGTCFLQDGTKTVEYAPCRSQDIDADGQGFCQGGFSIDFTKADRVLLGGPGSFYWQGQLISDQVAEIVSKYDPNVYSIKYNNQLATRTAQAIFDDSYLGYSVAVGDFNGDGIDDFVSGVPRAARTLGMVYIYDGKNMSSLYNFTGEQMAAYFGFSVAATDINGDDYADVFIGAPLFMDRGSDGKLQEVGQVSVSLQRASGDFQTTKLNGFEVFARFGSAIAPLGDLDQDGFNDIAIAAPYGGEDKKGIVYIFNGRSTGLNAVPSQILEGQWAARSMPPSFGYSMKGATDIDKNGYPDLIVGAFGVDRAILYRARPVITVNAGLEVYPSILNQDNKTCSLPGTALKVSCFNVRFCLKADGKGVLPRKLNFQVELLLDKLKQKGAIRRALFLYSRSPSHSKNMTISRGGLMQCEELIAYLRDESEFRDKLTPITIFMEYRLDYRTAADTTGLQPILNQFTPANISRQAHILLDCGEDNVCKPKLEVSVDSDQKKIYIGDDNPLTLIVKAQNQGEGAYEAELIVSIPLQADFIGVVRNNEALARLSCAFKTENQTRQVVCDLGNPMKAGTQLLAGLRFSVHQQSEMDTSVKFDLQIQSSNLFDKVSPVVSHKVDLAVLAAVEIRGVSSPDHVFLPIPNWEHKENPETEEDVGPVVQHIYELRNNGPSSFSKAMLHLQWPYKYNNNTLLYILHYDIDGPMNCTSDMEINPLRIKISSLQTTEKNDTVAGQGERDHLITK
Chain of human integrin αvβ5 (P06756 891-1048 partner limits assumed): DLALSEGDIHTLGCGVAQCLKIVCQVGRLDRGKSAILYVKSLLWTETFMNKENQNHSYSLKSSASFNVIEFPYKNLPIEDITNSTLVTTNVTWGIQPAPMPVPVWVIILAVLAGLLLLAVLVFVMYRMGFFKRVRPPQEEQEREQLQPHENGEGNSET
Chain of human integrin αvβ5 (P18084 24-799): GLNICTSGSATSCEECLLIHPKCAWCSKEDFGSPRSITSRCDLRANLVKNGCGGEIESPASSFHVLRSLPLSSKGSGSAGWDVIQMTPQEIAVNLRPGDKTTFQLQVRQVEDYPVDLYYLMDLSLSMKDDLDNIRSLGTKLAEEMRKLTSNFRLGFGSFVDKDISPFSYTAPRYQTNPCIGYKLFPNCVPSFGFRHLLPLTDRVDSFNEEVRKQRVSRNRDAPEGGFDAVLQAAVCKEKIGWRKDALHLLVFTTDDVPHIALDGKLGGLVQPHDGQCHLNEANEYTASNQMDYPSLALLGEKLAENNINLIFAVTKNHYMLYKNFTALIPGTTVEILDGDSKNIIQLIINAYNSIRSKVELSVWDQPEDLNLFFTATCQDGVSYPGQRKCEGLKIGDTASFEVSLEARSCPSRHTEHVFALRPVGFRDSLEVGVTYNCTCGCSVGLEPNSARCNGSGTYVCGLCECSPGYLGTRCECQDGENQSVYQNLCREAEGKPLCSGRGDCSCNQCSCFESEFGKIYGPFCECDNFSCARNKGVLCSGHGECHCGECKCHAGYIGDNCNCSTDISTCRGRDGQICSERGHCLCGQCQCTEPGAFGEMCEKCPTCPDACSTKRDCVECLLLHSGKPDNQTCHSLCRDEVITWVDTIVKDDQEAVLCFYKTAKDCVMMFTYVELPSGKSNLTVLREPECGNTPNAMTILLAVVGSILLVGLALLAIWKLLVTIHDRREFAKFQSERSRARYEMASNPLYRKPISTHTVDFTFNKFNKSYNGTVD

| Compound | pKd (human integrin αvβ5) | Molecule stability (cyclic peptide residual rate) [1] |
| --- | --- | --- |
| N=C(N)NCCC[C@@H]1NC(=O)[C@@H]2CCCNC(=O)CSCC[C@H](NC(=O)[C@H](CC(=O)O)NC(=O)CNC1=O)C(=O)N[C@@H](Cc1ccccc1)C(=O)N[C@H](C(=O)N[C@@H](CCCCN)C(=O)N[C@@H](CCCCN)C(=O)N[C@@H](CCCCN)C(=O)O)CCSCC(=O)N[C@@H](CCC(=O)O)C(=O)N2 [Cyclic peptide 40] ({CH2CO}-E[Orn]RGD[hCys]F[hCys]KKK-OH; linker 2-6 via X2; thioether N-8) | > 7.30 | A (The residual rate of the cyclic peptide is 70% or more.) |
| CC(C)[C@@H]1NC(=O)CSCC[C@@H](C(=O)N[C@@H](CCCCN)C(=O)N[C@@H](CCCCN)C(=O)N[C@@H](CCCCN)C(=O)O)NC(=O)[C@H](Cc2ccccc2)NC(=O)[C@@H]2CCCNC(=O)CSCC[C@H](NC1=O)C(=O)N[C@@H](CCCNC(=N)N)C(=O)NCC(=O)N[C@@H](CC(=O)O)C(=O)N2 [Cyclic peptide 41] ({CH2CO}-V[hCys]RGD[Orn]F[hCys]KKK-OH; linker 2-6 via X1; thioether N-8) | 7.00 to 7.30 | A (The residual rate of the cyclic peptide is 70% or more.) |
| N=C(N)NCCC[C@@H]1NC(=O)[C@@H]2CCSCC(=O)NCCCC[C@H](NC(=O)[C@H](CC(=O)O)NC(=O)CNC1=O)C(=O)N[C@@H](Cc1ccccc1)C(=O)N[C@H](C(=O)N[C@@H](CCCCN)C(=O)N[C@@H](CCCCN)C(=O)N[C@@H](CCCCN)C(=O)O)CCSCC(=O)N[C@@H](Cc1ccc(O)cc1)C(=O)N2 [Cyclic peptide 25] ({CH2CO}-Y[hCys]RGDKF[hCys]KKK-OH; linker 2-6 via X1; thioether N-8) | > 7.30 | A (The residual rate of the cyclic peptide is 70% or more.) |
| C[C@H](NC(=O)[C@@H]1CCSCC(=O)N[C@@H](CC(=O)O)C(=O)N[C@H]2CCSCC(=O)NCCCC[C@H](NC(=O)[C@H](CC(=O)O)NC(=O)CNC(=O)[C@H](CCCNC(=N)N)NC2=O)C(=O)N[C@@H](Cc2ccccc2)C(=O)N1)C(=O)N[C@@H](CCCCN)C(=O)N[C@@H](CCCCN)C(=O)N[C@@H](CCCCN)C(=O)O [Cyclic peptide 45] ({CH2CO}-D[hCys]RGDKF[hCys]AKKK-OH; linker 2-6 via X1; thioether N-8) | > 7.30 | A (The residual rate of the cyclic peptide is 70% or more.) |
| CC[C@H](C)[C@@H]1NC(=O)CSCC[C@@H](C(=O)N[C@@H](CCCCN)C(=O)O)NC(=O)[C@H](Cc2ccccc2)NC(=O)[C@@H]2CCCCNC(=O)CSCC[C@H](NC1=O)C(=O)N[C@@H](CCCNC(=N)N)C(=O)NCC(=O)N[C@@H](CC(=O)O)C(=O)N2 [Cyclic peptide 22] ({CH2CO}-I[hCys]RGDKF[hCys]K-OH; linker 2-6 via X1; thioether N-8) | > 7.30 | A (The residual rate of the cyclic peptide is 70% or more.) |
| CC(C)[C@@H]1NC(=O)CSCC[C@@H](C(=O)N[C@@H](C)C(=O)N[C@@H](CCCCN)C(=O)N[C@@H](CCCCN)C(=O)N[C@@H](CCCCN)C(=O)O)NC(=O)[C@H](Cc2ccccc2)NC(=O)[C@@H]2CCCCNC(=O)CSCC[C@H](NC1=O)C(=O)N[C@@H](CCCNC(=N)N)C(=O)NCC(=O)N[C@@H](CC(=O)O)C(=O)N2 [Cyclic peptide 44] ({CH2CO}-V[hCys]RGDKF[hCys]AKKK-OH; linker 2-6 via X1; thioether N-8) | > 7.30 | A (The residual rate of the cyclic peptide is 70% or more.) |

The next lines start with results.

| pKd (human integrin αvβ5) | Compound | Molecule stability (cyclic peptide residual rate) [1] |
| --- | --- | --- |
| 7.00 to 7.30 | CC[C@H](C)[C@@H]1NC(=O)CSC[C@@H](C(=O)N[C@@H](CCCCN)C(=O)N[C@@H](CCCCN)C(=O)N[C@@H](CCCCN)C(=O)O)NC(=O)[C@H](Cc2ccccc2)NC(=O)[C@@H]2CCNC(=O)CSCC[C@H](NC1=O)C(=O)N[C@@H](CCCNC(=N)N)C(=O)NCC(=O)N[C@@H](CC(=O)O)C(=O)N2 [Cyclic peptide 19] ({CH2CO}-I[hCys]RGD[Dab]FCKKK-OH; linker 2-6 via X1; thioether N-8) | A (The residual rate of the cyclic peptide is 70% or more.) |
| 6.70 to 7.00 | CC[C@H](C)[C@@H]1NC(=O)CSC[C@@H](C(=O)N[C@@H](CCCCN)C(=O)N[C@@H](CCCCN)C(=O)N[C@@H](CCCCN)C(=O)O)NC(=O)[C@H](Cc2ccccc2)NC(=O)[C@@H]2CNC(=O)CSC[C@H](NC1=O)C(=O)N[C@@H](CCCNC(=N)N)C(=O)NCC(=O)N[C@@H](CC(=O)O)C(=O)N2 [Cyclic peptide 6] ({CH2CO}-ICRGD[Dap]FCKKK-OH; linker 2-6 via X1; thioether N-8) | B (The residual rate of the cyclic peptide is 50% or more and less than 70%.) |
| > 7.30 | CC[C@H](C)[C@@H]1NC(=O)CSCC[C@@H](C(=O)N[C@@H](CCCCN)C(=O)N[C@@H](CCCCN)C(=O)N[C@@H](CCCCN)C(=O)O)NC(=O)[C@H](Cc2ccccc2)NC(=O)[C@@H]2CCNC(=O)CSC[C@H](NC1=O)C(=O)N[C@@H](CCCNC(=N)N)C(=O)NCC(=O)N[C@@H](CC(=O)O)C(=O)N2 [Cyclic peptide 20] ({CH2CO}-ICRGD[Dab]F[hCys]KKK-OH; linker 2-6 via X1; thioether N-8) | A (The residual rate of the cyclic peptide is 70% or more.) |
| 7.00 to 7.30 | CC[C@H](C)[C@@H]1NC(=O)CSC[C@@H](C(=O)N[C@@H](CCCCN)C(=O)N[C@@H](CCCCN)C(=O)N[C@@H](CCCCN)C(=O)O)NC(=O)[C@H](Cc2ccccc2)NC(=O)[C@@H]2CCCNC(=O)CSC[C@H](NC1=O)C(=O)N[C@@H](CCCNC(=N)N)C(=O)NCC(=O)N[C@@H](CC(=O)O)C(=O)N2 [Cyclic peptide 10] ({CH2CO}-ICRGD[Orn]FCKKK-OH; linker 2-6 via X1; thioether N-8) | B (The residual rate of the cyclic peptide is 50% or more and less than 70%.) |
| 7.00 to 7.30 | CC[C@H](C)[C@@H]1NC(=O)CSC[C@@H](C(=O)N[C@@H](CCCCN)C(=O)N[C@@H](CCCCN)C(=O)N[C@@H](CCCCN)C(=O)O)NC(=O)[C@H](Cc2ccccc2)NC(=O)[C@@H]2CCSCC(=O)NC[C@H](NC1=O)C(=O)N[C@@H](CCCNC(=N)N)C(=O)NCC(=O)N[C@@H](CC(=O)O)C(=O)N2 [Cyclic peptide 13] ({CH2CO}-I[Dap]RGD[hCys]FCKKK-OH; linker 2-6 via X2; thioether N-8) | A (The residual rate of the cyclic peptide is 70% or more.) |
| > 7.30 | CC[C@H](C)[C@@H]1NC(=O)CSCC[C@@H](C(=O)N[C@@H](CCCCN)C(=O)N[C@@H](CCCCN)C(=O)N[C@@H](CCCCN)C(=O)O)NC(=O)[C@H](Cc2ccccc2)NC(=O)[C@@H]2CCSCC(=O)NCCC[C@H](NC1=O)C(=O)N[C@@H](CCCNC(=N)N)C(=O)NCC(=O)N[C@@H](CC(=O)O)C(=O)N2 [Cyclic peptide 3] ({CH2CO}-I[Orn]RGD[hCys]F[hCys]KKK-OH; linker 2-6 via X2; thioether N-8) | A (The residual rate of the cyclic peptide is 70% or more.) |
